# Assay results from ChEMBL document CHEMBL1201862, “PubChem BioAssay data set” (2004).
#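 Each compound was tested at five concentrations against cells in 96-well plates for 48 hours. GI50 is the concentration that inhibits growth by half.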 The source made the active and inactive calls. Cut-off read from the data, not from the text of the source: active = GI50 up to about 1.1 µM and inactive = higher.
# Columns and labels:
# Assay in all cases: NCI anticancer screen, dose series, 48 h
# HL-60 = test system: HL-60
# CAKI-1 = test system: CAKI-1
# CCRF-CEM = test system: CCRF-CEM
# A498 = test system: A498
# K562 = test system: K562
# SW-620 = test system: SW-620
# NCI-H460 = test system: NCI-H460
# OVCAR-4 = test system: OVCAR-4
# SK-MEL-2 = test system: SK-MEL-2
# HOP-92 = test system: HOP-92
# SF-295 = test system: SF-295
# LOX IMVI = test system: LOX IMVI
# U-251 = test system: U-251
# OVCAR-3 = test system: OVCAR-3
# HCC 2998 = test system: HCC 2998
# SN12C = test system: SN12C
# NCI/ADR-RES = test system: NCI/ADR-RES
# MDA-MB-435 = test system: MDA-MB-435
# Hs-578T = test system: Hs-578T
SMILES,GI50 (HL-60),GI50 (CAKI-1),GI50 (CCRF-CEM),GI50 (A498),GI50 (K562),GI50 (SW-620),GI50 (NCI-H460),GI50 (OVCAR-4),GI50 (SK-MEL-2),GI50 (HOP-92),GI50 (SF-295),GI50 (LOX IMVI),GI50 (U-251),GI50 (OVCAR-3),GI50 (HCC 2998),GI50 (SN12C),GI50 (NCI/ADR-RES),GI50 (MDA-MB-435),GI50 (Hs-578T)
CC1(C)CC2CC(CC(C)(C)C2=O)C1=O,> 100 µM (inactive),> 100 µM (inactive),> 100 µM (inactive),> 100 µM (inactive),> 100 µM (inactive),> 100 µM (inactive),> 100 µM (inactive),> 100 µM (inactive),> 100 µM (inactive),> 100 µM (inactive),> 100 µM (inactive),> 100 µM (inactive),> 100 µM (inactive),> 100 µM (inactive),> 100 µM (inactive),> 100 µM (inactive),,,
CC1=NN(C(=O)CC(=O)Nc2ccccc2)C(=O)C1/N=N/c1ccc(S(N)(=O)=O)cc1 (centres undefined),18 µM (inactive),50.8 µM (inactive),46 µM (inactive),> 100 µM (inactive),35.2 µM (inactive),59.4 µM (inactive),92.5 µM (inactive),60.4 µM (inactive),> 100 µM (inactive),> 100 µM (inactive),> 100 µM (inactive),75.5 µM (inactive),56.4 µM (inactive),66.2 µM (inactive),49.9 µM (inactive),41.9 µM (inactive),,,
CC12CC3c4ccccc4CN1C3(c1ccccc1)OC2=O (centres undefined),> 100 µM (inactive),> 100 µM (inactive),> 100 µM (inactive),> 100 µM (inactive),,> 100 µM (inactive),,> 100 µM (inactive),> 100 µM (inactive),,> 100 µM (inactive),> 100 µM (inactive),> 100 µM (inactive),,,> 100 µM (inactive),> 100 µM (inactive),> 100 µM (inactive),> 100 µM (inactive)
COc1cc(/C=C2\NC(=O)C(Cc3cc(OC)c(OC)c(C)c3OC)N(C(C)=O)C2=O)c(OC)c(C)c1OC (centres undefined),23 µM (inactive),54.8 µM (inactive),45.2 µM (inactive),> 100 µM (inactive),61.2 µM (inactive),> 100 µM (inactive),43.4 µM (inactive),> 100 µM (inactive),96.4 µM (inactive),29.3 µM (inactive),> 100 µM (inactive),> 100 µM (inactive),> 100 µM (inactive),> 100 µM (inactive),> 100 µM (inactive),> 100 µM (inactive),,,
CC(=O)Oc1cc2c(=O)oc3c(OC(C)=O)c(OC(C)=O)c(OC(C)=O)c4c(=O)oc(c1OC(C)=O)c2c34,56 µM (inactive),> 100 µM (inactive),19.2 µM (inactive),65 µM (inactive),53.5 µM (inactive),34.5 µM (inactive),34.7 µM (inactive),41.9 µM (inactive),28.8 µM (inactive),25.2 µM (inactive),20.8 µM (inactive),15.6 µM (inactive),36.6 µM (inactive),> 100 µM (inactive),> 100 µM (inactive),29 µM (inactive),,,
COc1ccc2c3c1C(=O)CCC3CO2 (centres undefined),> 100 µM (inactive),> 100 µM (inactive),> 100 µM (inactive),> 100 µM (inactive),> 100 µM (inactive),> 100 µM (inactive),> 100 µM (inactive),> 100 µM (inactive),> 100 µM (inactive),> 100 µM (inactive),> 100 µM (inactive),> 100 µM (inactive),> 100 µM (inactive),> 100 µM (inactive),> 100 µM (inactive),> 100 µM (inactive),,,
C=C(CN(C)C)C(=O)c1ccc(C(=O)C(=C)CN(C)C)cc1,> 100 µM (inactive),> 100 µM (inactive),> 100 µM (inactive),> 100 µM (inactive),> 100 µM (inactive),> 100 µM (inactive),> 100 µM (inactive),> 100 µM (inactive),> 100 µM (inactive),> 100 µM (inactive),> 100 µM (inactive),> 100 µM (inactive),> 100 µM (inactive),> 100 µM (inactive),> 100 µM (inactive),> 100 µM (inactive),,,
CCO/C=C1\N=C(C(Cl)c2ccccc2)OC1=O (centres undefined),> 100 µM (inactive),> 100 µM (inactive),> 100 µM (inactive),> 100 µM (inactive),> 100 µM (inactive),> 100 µM (inactive),> 100 µM (inactive),> 100 µM (inactive),> 100 µM (inactive),> 100 µM (inactive),> 100 µM (inactive),> 100 µM (inactive),,> 100 µM (inactive),> 100 µM (inactive),> 100 µM (inactive),,,
Cc1cccc(C(C)C)c1NC(=O)C(=O)CC(=O)c1c(C)[n+]([O-])c2ccccc2[n+]1[O-],41.2 µM (inactive),25.6 µM (inactive),32.2 µM (inactive),> 100 µM (inactive),> 100 µM (inactive),33.1 µM (inactive),21.5 µM (inactive),25.4 µM (inactive),29.3 µM (inactive),67 µM (inactive),49.1 µM (inactive),23 µM (inactive),34.1 µM (inactive),3.44 µM (inactive),34.3 µM (inactive),30.6 µM (inactive),,,
COC(=O)C1=C(O)c2cc(OC)c(OC)cc2C(c2ccc(OC)c(OC)c2)C1 (centres undefined),> 100 µM (inactive),> 100 µM (inactive),> 100 µM (inactive),36.3 µM (inactive),> 100 µM (inactive),54.8 µM (inactive),66.7 µM (inactive),> 100 µM (inactive),> 100 µM (inactive),> 100 µM (inactive),46.9 µM (inactive),69.5 µM (inactive),> 100 µM (inactive),> 100 µM (inactive),> 100 µM (inactive),51.2 µM (inactive),,,
CC#C[P+](c1ccccc1)(c1ccccc1)c1ccccc1,3.71 µM (inactive),3.24 µM (inactive),0.693 µM (active),39.4 µM (inactive),1.95 µM (inactive),,2.48 µM (inactive),6.49 µM (inactive),1.56 µM (inactive),2.16 µM (inactive),2.75 µM (inactive),2 µM (inactive),0.861 µM (active),3.09 µM (inactive),3.52 µM (inactive),1.12 µM (inactive),,,
CCOC(=O)CCC(C(=O)OCC)n1nnc2ccc(Nc3c(C)[n+]([O-])c4cc(Cl)ccc4[n+]3[O-])cc21 (centres undefined),29.9 µM (inactive),34.4 µM (inactive),29.1 µM (inactive),,22.6 µM (inactive),,35.3 µM (inactive),18.3 µM (inactive),21.7 µM (inactive),16 µM (inactive),68.1 µM (inactive),17.7 µM (inactive),51.8 µM (inactive),17.7 µM (inactive),16.8 µM (inactive),24.5 µM (inactive),31.8 µM (inactive),19.2 µM (inactive),32.4 µM (inactive)
